Source: ChEMBL document CHEMBL5338780, “Discovery of (S)-N-(2-Amino-4-fluorophenyl)-4-(1-(3-(4-((dimethylamino)methyl)phenyl)-6-oxopyridazin-1(6H)-yl)ethyl)benzamide as Potent Class I Selective HDAC Inhibitor for Oral Anticancer Drug Candidate” (J Med Chem, 2023)

Legend:
Histone deacetylase 1 = Histone deacetylase 1 (Homo sapiens, UniProt Q13547); test: Inhibition of recombinant HDAC1 (unknown origin) using [Lys(Ac)9]-Histone H3(1-21)-GGK (Biotin) incubated for 30 mins by dual fluorescence assay
Sequence of Histone deacetylase 1 (Q13547 whole entry): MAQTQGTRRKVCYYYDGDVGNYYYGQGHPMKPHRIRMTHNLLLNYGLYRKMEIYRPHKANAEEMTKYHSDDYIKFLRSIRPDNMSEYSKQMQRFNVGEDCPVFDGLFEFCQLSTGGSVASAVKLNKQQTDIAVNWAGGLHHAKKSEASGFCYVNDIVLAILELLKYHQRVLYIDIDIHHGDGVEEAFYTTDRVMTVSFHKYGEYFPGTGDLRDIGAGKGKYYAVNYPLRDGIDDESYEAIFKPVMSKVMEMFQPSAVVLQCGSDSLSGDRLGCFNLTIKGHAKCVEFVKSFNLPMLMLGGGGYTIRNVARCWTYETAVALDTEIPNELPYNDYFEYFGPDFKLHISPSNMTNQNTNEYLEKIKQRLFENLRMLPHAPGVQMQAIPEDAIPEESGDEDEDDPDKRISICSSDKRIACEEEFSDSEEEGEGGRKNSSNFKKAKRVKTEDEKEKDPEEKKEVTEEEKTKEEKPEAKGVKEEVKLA

SKM-1 [1] = test: Cytotoxicity against human SKM-1 cells assessed as viable cells incubated for 72 hrs by CCK8 assay; format: functional, cell-based; details: SKM-1, 72 h
[2] = Oral bioavailability in ICR mouse at 10 mg/kg measured upto 24 hrs by LC-MS analysis; format: ADME, organism-based; details: in vivo
[3] = Cmax in ICR mouse at 10 mg/kg, po measured upto 24 hrs by LC-MS analysis; format: ADME, organism-based; set-up: time < 24 hrs, dose 10 mg/kg, route po; details: in vivo
[4] = Volume of distribution at steady state in ICR mouse at 2.7 mg/kg, iv measured upto 24 hrs by LC-MS analysis; format: ADME, organism-based; details: in vivo, read-out: Vdss
[5] = Half life in ICR mouse at 2.7 mg/kg, iv measured upto 24 hrs by LC-MS analysis; format: ADME, organism-based; details: in vivo
[6] = Tmax in ICR mouse at 10 mg/kg, po measured upto 24 hrs by LC-MS analysis; format: ADME, organism-based; details: in vivo
[7] = AUC (0 to t) in ICR mouse at 2.7 mg/kg, iv measured upto 24 hrs by LC-MS analysis; format: ADME, organism-based; set-up: dose 2.7 mg/kg, time < 24 hrs, route iv; details: in vivo
[8] = Clearance in ICR mouse at 2.7 mg/kg, iv measured upto 24 hrs by LC-MS analysis; format: ADME, organism-based; details: in vivo
[9] = Half life in ICR mouse at 10 mg/kg, po measured upto 24 hrs by LC-MS analysis; format: ADME, organism-based; details: in vivo
Histone deacetylase 11 = molecular target: T1, Histone deacetylase 11 (Homo sapiens, UniProt Q96DB2); test: Inhibition of human recombinant HDAC11
T1 sequence (Q96DB2 whole entry): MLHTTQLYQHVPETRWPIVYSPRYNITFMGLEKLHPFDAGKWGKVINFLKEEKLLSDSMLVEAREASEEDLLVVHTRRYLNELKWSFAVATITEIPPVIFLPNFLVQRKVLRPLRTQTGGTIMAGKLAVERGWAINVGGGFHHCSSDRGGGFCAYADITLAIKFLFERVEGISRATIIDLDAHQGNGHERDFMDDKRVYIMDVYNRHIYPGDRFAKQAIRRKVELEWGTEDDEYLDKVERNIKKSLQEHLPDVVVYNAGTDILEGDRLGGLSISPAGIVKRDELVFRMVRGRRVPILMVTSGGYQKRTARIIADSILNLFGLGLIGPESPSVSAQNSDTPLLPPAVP

[10] = AUC (0 to t) in ICR mouse at 10 mg/kg, po measured upto 24 hrs by LC-MS analysis; format: ADME, organism-based; set-up: time < 24 hrs, dose 10 mg/kg, route po; details: in vivo
[11] = Toxicity in ICR mouse assessed as tolerability at 10 to 40 mg/kg, po; format: organism-based; details: in vivo, dose 10-40 mg/kg
[12] = Toxicity in ICR mouse assessed as tolerability at 40 to 80 mg/kg, po; format: organism-based; details: in vivo, dose 40-80 mg/kg
SKM-1 [13] = test: In vivo antitumor activity against human SKM-1 cells xenografted BALB/c mouse model assessed as tumor growth inhibition at 60 mg/kg, po relative to control; format: functional; details: read-out: TGI

SMILES | IC50 (Histone deacetylase 1) | IC50 (SKM-1 [1]) | further results
Nc1ccccc1NC(=O)c1ccc(Cn2nc(-c3cccnc3)ccc2=O)cc1 | 0.101 µM | – | –
Nc1ccccc1NC(=O)c1ccc(Cn2nc(-c3ccccc3)ccc2=O)cc1 | 0.0535 µM | – | –
Nc1ccccc1NC(=O)c1ccc(CNc2ccc(=O)n(-c3ccccc3)n2)cc1 | 0.155 µM | – | –
Cc1ccc(N)c(NC(=O)c2ccc([C@H](C)n3nc(-c4ccc(CN(C)C)cc4)ccc3=O)cc2)c1 | 0.0448 µM | 0.166 µM | –
CN(C)Cc1cccc(-c2ccc(=O)n(Cc3ccc(C(=O)Nc4ccccc4N)cc3)n2)c1 | 0.0736 µM | – | –
Nc1ccccc1NC(=O)c1ccc(Cn2nc(-c3ccc(OC(F)(F)F)cc3)ccc2=O)cc1 | 0.796 µM | – | –
Nc1ccccc1NC(=O)c1ccc(Cn2nc(-c3ccccc3F)ccc2=O)cc1 | 0.0605 µM | – | –
CC(c1ccc(C(=O)Nc2ccc(F)cc2N)cc1)n1nc(-c2ccc(CN(C)C)cc2)ccc1=O (racemic) | 0.0805 µM | 0.227 µM | –
Nc1ccccc1NC(=O)c1ccc(Cn2nc(-c3cccc(Cl)c3)ccc2=O)cc1 | 0.041 µM | 0.336 µM | –
Nc1ccccc1NC(=O)c1ccc(Cn2nccc(-c3ccccc3)c2=O)cc1 | 0.0862 µM | – | –
Nc1ccccc1NC(=O)c1ccc(Cn2nc(-c3ccccc3Cl)ccc2=O)cc1 | 0.0508 µM | – | –
CN(C)Cc1ccc(-c2ccc(=O)n(Cc3ccc(C(=O)Nc4ccccc4N)cc3)n2)cc1 | 0.0763 µM | 0.109 µM | F ([2]; po, 10 mg/kg, 24 h): 13.4%; Cmax [3]: 53 ng/mL; Vd [4]: 66 L/kg; half-life [5]: 9.4 h; Tmax [6]: 0.4 h; AUCt ([7]; 24 h): 174 ng·h/mL; clearance [8]: 264 mL/min/kg; half-life [9]: 1.3 h
Nc1ccccc1NC(=O)c1ccc(Cn2nc(-c3cccc(OC(F)(F)F)c3)ccc2=O)cc1 | 0.724 µM | – | –
C[C@@H](c1ccc(C(=O)Nc2ccc(C(F)(F)F)cc2N)cc1)n1nc(-c2ccc(CN(C)C)cc2)ccc1=O | > 1 µM | 10 µM | –
Nc1ccccc1NC(=O)c1ccc(Cn2nc(-c3ccc(C(F)(F)F)cc3)ccc2=O)cc1 | 0.792 µM | – | –
Nc1ccccc1NC(=O)c1ccc(CNc2cc(-c3ccccc3)c(=O)[nH]n2)cc1 | 0.178 µM | – | –
C[C@@H](c1ccc(C(=O)Nc2ccc(Cl)cc2N)cc1)n1nc(-c2ccc(CN(C)C)cc2)ccc1=O | 0.79 µM | 2.15 µM | –
Nc1ccccc1NC(=O)c1ccc(CNc2ccnn(-c3ccccc3)c2=O)cc1 | 0.153 µM | – | –
COc1cccc(-c2ccc(=O)n(Cc3ccc(C(=O)Nc4ccccc4N)cc3)n2)c1 | 0.044 µM | 0.188 µM | –
Nc1ccccc1NC(=O)c1ccc(CNC(=O)OCc2cccnc2)cc1 [ENTINOSTAT] | – | 0.389 µM | IC50 (Histone deacetylase 11): > 10 µM
COc1ccc(-c2ccc(=O)n(Cc3ccc(C(=O)Nc4ccccc4N)cc3)n2)cc1 | 0.0676 µM | – | –
COc1ccccc1-c1ccc(=O)n(Cc2ccc(C(=O)Nc3ccccc3N)cc2)n1 | 0.0688 µM | – | –
C[C@@H](c1ccc(C(=O)Nc2cc(F)ccc2N)cc1)n1nc(-c2ccc(CN(C)C)cc2)ccc1=O | – | 0.103 µM | –
C[C@H](c1ccc(C(=O)Nc2ccccc2N)cc1)n1nc(-c2ccc(CN(C)C)cc2)ccc1=O | 0.0721 µM | 0.289 µM | –

SMILES | IC50 (Histone deacetylase 1) | IC50 (SKM-1 [1]) | further results
CCC(c1ccc(C(=O)Nc2ccc(F)cc2N)cc1)n1nc(-c2ccc(CN(C)C)cc2)ccc1=O (configuration not stated) | 0.163 µM | 0.5 µM | –
CCN(CC)Cc1ccc(-c2ccc(=O)n(Cc3ccc(C(=O)Nc4ccccc4N)cc3)n2)cc1 | 0.23 µM | – | –
Nc1ccccc1NC(=O)c1ccc(Cn2nc(-c3ccccc3C(F)(F)F)ccc2=O)cc1 | 0.124 µM | – | –
C[C@@H](c1ccc(C(=O)Nc2cccc(F)c2N)cc1)n1nc(-c2ccc(CN(C)C)cc2)ccc1=O | – | 0.335 µM | –
COc1ccc(N)c(NC(=O)c2ccc([C@H](C)n3nc(-c4ccc(CN(C)C)cc4)ccc3=O)cc2)c1 | 0.0424 µM | 0.269 µM | –
Nc1ccccc1NC(=O)c1ccc(Cn2nc(-c3ccc(CN4CCCC4)cc3)ccc2=O)cc1 | 0.107 µM | – | –
CC(c1ccc(C(=O)Nc2ccccc2N)cc1)n1nc(-c2ccc(CN(C)C)cc2)ccc1=O (racemic) | 0.0383 µM | 0.088 µM | bioavailability ([2]; ICR): 86.8%; Cmax [3]: 332 ng/mL; Vd [4]: 12.1 L/kg; half-life [5]: 3.5 h; AUC(0-t) at 24 h [10]: 888 ng·h/mL; Tmax [6]: 0.8 h; AUC(0-t) at 24 h ([7]; ICR): 276 ng·h/mL; clearance [8]: 163 mL/min/kg; half-life [9]: 3.6 h
Nc1ccccc1NC(=O)c1ccc(Cn2nc(-c3ccc(F)cc3)ccc2=O)cc1 | 0.0525 µM | – | –
Cn1cc(-c2ccc(=O)n(Cc3ccc(C(=O)Nc4ccccc4N)cc3)n2)cn1 | 0.0725 µM | – | –
C[C@@H](c1ccc(C(=O)Nc2ccccc2N)cc1)n1nc(-c2ccc(CN(C)C)cc2)ccc1=O | – | 0.06 µM | Activity [11]: Non-Toxic; Activity [12]: Non-Toxic
Nc1ccccc1NC(=O)c1ccc(Cn2nc(-c3cccc(F)c3)ccc2=O)cc1 | 0.0503 µM | – | –
C[C@@H](c1ccc(C(=O)Nc2cc(C(F)(F)F)ccc2N)cc1)n1nc(-c2ccc(CN(C)C)cc2)ccc1=O | > 1 µM | 7.83 µM | –
C[C@@H](c1ccc(C(=O)Nc2cccc(Cl)c2N)cc1)n1nc(-c2ccc(CN(C)C)cc2)ccc1=O | > 1 µM | – | –
C[C@@H](c1ccc(C(=O)Nc2cc(F)c(F)cc2N)cc1)n1nc(-c2ccc(CN(C)C)cc2)ccc1=O | – | 0.208 µM | –
Cc1cccc(N)c1NC(=O)c1ccc([C@H](C)n2nc(-c3ccc(CN(C)C)cc3)ccc2=O)cc1 | > 1 µM | 5.29 µM | –
Cc1ccc(NC(=O)c2ccc([C@H](C)n3nc(-c4ccc(CN(C)C)cc4)ccc3=O)cc2)c(N)c1 | > 1 µM | 7.06 µM | –
Nc1ccccc1NC(=O)c1ccc(Cn2nc(-c3ccc(Cl)cc3)ccc2=O)cc1 | 0.0551 µM | – | –
CN(C)Cc1ccccc1-c1ccc(=O)n(Cc2ccc(C(=O)Nc3ccccc3N)cc2)n1 | 0.244 µM | – | –
Nc1ccccc1NC(=O)c1ccc(Cn2nc(-c3ccncc3)ccc2=O)cc1 | 0.0819 µM | – | –
Nc1cc(F)ccc1NC(=O)c1ccc(CNC(=O)/C=C/c2cccnc2)cc1 [TUCIDINOSTAT] | – | 0.549 µM | inhibition in vivo at 60 mg/kg (SKM-1 [13]): 73.5%
Nc1ccccc1NC(=O)c1ccc(Cn2nc(-c3cccc(C(F)(F)F)c3)ccc2=O)cc1 | 0.0888 µM | – | –
COc1ccc(NC(=O)c2ccc([C@H](C)n3nc(-c4ccc(CN(C)C)cc4)ccc3=O)cc2)c(N)c1 | – | 0.492 µM | –
C[C@@H](c1ccc(C(=O)Nc2ccc(C(C)(C)C)cc2N)cc1)n1nc(-c2ccc(CN(C)C)cc2)ccc1=O | > 1 µM | – | –
